11 molecules from patent US9758527B2, “Cyclohexene derivative, preparation method therefor, and pharmaceutical composition for preventing or treating metabolic diseases, containing same as active ingredient” (HYUNDAI PHARM CO., LTD., priority 2014, dated 2017) can be followed below.

The nature of data set [1]: Weight change in diet-induced obesity (DIO) rat model, 4-week administration. The format is in vivo, male Sprague Dawley (SD) rats. Conditions: DIO rats, 4 weeks. Here is the method: To simultaneously evaluate both the weight-loss and hypoglycemic effects of the cyclohexene derivative according to the present invention, experiments were carried out, as follows.
Specifically, male Sprague Dawley (SD) rats (approximately 4 weeks old) in a diet-induced obesity model were fed with a high-fat diet (Lab. Diet Co.) for approximately 10 weeks to induce high-fat diet-induced obesity (DIO). The rats undergoing the high-fat diet were randomly selected, and divided into groups (n=8) for respective administrations. The compounds of Comparative Examples 3 and 4 and Examples 48 and 119 were administered to the divided DIO rats each group for 4 weeks.
The weights of the DIO rats were measured twice a week during a period of administration of 4 weeks to record a change in the weights. At the end of the 4-week period of administration, a hypoglycemic effect was evaluated using an oral glucose tolerance test (OGTT), as follows.
FIG. 1 is a graph determining the changes in weights of rats after compounds of Example 48 and Comparative Examples 3 and 4 according to the present invention are administered to a diet-induced obesity (DIO) rat model for 4 weeks (In FIG. 1, the term “untreated group (Vehicle)” represents an untreated group in a high-fat DIO rat model; and the term “Lean” represents an untreated group in a normal SD rat model rather than a disease model).

A short description of a further data set: in vivo. Conditions: female, Ihara's cataract rats (ICR), rat, po. Here is the method: To evaluate acute toxicity of the cyclohexene derivative according to the present invention, experiments were carried out, as follows.
Five 7-week-old female Ihara's cataract rats (ICRs) were supplied by Nara Biotech Co. Ltd., housed in a breeding farm, and acclimated to new environments while being fed with general solid feeds and water. When the rats were 8 weeks old, experiments were carried out. Environmental conditions were maintained constant: a set temperature of 23±3° C., a humidity of 55±15%, an illuminance of 150 to 300 Lux, a ventilation rate of 10 to 20 times/hour, and a lighting time of 12 hours (light-dark cycle: lighting at 8 a.m. and lights-out at 8 p.m.). As the feeds, solid feeds for laboratory animals (5L79 Lab Diet, Purina Mills, Richmond, Ind., USA), which had been sterilized by exposure to radiation, were provided by Orientbio Inc. so that rats were allowed to freely consume the solid feeds. As the water, running water was disinfected using a UV sterilizer and an ultra-filtration system, and then provided o that rats were allowed to freely drink the water in a water bottle. Analyses of contaminants in the water and feeds were carried out according to the ChemOn Inc.'s standard operating procedure (SOP). […]

Data set [2] has as its target T1, G protein-coupled receptor 119 (GPR-119) (Mesocricetus auratus, UniProt A0A1U8CD06).
T1 construct: hamster-derived β-cells containing G protein-coupled receptor 119 (GPR-119), HIT-T15 cells; host or cells: HIT-T15 (hamster pancreatic β-cells)
T1 sequence (A0A1U8CD06 1-334): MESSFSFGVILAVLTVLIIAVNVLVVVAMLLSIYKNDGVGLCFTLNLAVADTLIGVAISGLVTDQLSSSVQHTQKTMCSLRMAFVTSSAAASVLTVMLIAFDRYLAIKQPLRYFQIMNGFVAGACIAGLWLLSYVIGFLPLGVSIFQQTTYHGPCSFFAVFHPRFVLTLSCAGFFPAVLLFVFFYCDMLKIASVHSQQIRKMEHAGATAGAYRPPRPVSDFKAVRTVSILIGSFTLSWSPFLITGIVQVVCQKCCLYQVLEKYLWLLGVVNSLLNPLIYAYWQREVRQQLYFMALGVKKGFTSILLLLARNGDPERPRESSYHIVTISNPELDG
The experiment in a line: Evaluation of cAMP activity in HIT-T15 cells (HTRF cAMP dynamic kit). The format is cell-based, hamster. Conditions: cAMP activation. Summed up: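 HIT-T15 cells, 60,000/well, treated next day with compound at six concentrations ([…]) for 1 h at 37° C. Lysate cAMP quantified by HTRF competitive immunoassay (D2-cAMP, cryptate anti-cAMP); activity taken as change in FRET signal relative to DMSO.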

The next data set deals with NCI-H716 cells. The experiment in a line: Promotion of glucagon-like peptide-1 (GLP-1) secretion (ELISA). Conditions: NCI-H716 cells, 1, 10 and 30 μM-treated groups. The format is cell-based, human. The procedure:
To evaluate an effect of the cyclohexene derivative according to the present invention on promotion of glucagon-like peptide-1 (GLP-1) secretion, experiments were carried out, as follows.
NCI-H716 cells that were human enterocytes were plated on 12 wells at 1×10^6 cells per well. After 48 hours, the cells were starved in serum-free media for 2 hours, and treated with a varying concentration of siptagliptin that was a dipeptidyl peptidase-IV (DPP-IV) inhibitor, and the compounds of Comparative Example 1 (1, 10, 30 μM), Comparative Example 5 (10 μM), Example 48 (1, 10, 30 μM), and Example 291 (1, 10, 30 μM). After an hour, supernatants are recovered to determine an amount of the secreted GLP-1 peptide. The GLP-1 measurement was performed using an enzyme-linked immunosorbent assay (ELISA; Millipore, EGLP-35K), and the amount of the secreted GLP-1 peptide was indicated by the unit “pM”.
FIG. 3 is graph plotted for amounts of secreted GLP-1 when NCI-H716 cells that are human enterocytes are treated with the compounds of Comparative Examples 1 and 5 and Example 48 according to the present invention.
(In general: ELISA stands for enzyme-linked immunosorbent assay.)

The subject of another data set is blood glucose level. The experiment in a line: Oral glucose tolerance test (OGTT) in high-fat diet model. Conditions: hypoglycemic level, 20 mg/kg oral, glucose 2 g/kg oral after 30 minutes; for inhibition in vivo at 20 mg/kg: Mus musculus, 2 h, read-out: % AUC. The format is in vivo. The procedure:
To evaluate in vivo effective effects of the cyclohexene derivatives according to the present invention, experiments were carried out, as follows.
Specifically, male C57BL/6J (C57 black 6) […] (8 to 10 weeks old) in a high-fat diet model were acclimated for at least 7 days, and only healthy rat populations were selected and subjected to an oral glucose tolerance test (OGTT). The rats were fasted for 12 to 15 hours, and then randomly divided into groups with five rats per group. Thereafter, each of the compounds of Examples 1, 14, 48, 69, 80, 118, 139, 147, 148, 169, 190, 199, 200, 204, 227, and Comparative Examples 1 and 2 according to the present invention was administered to the rats at a dose of 20 mg/kg. In this case, a vehicle (0.5%, carboxymethyl cellulose (CMC)) was administered as an untreated group, and the dose of the compound administered together with the vehicle was orally administered at 10 ml/kg. After 30 minutes of administration, glucose (2 g/kg) was orally administered at a dose of 10 ml/kg. A blood glucose level was measured using an Accu-Chek Active Strip (Rosche Diagnostic Co.). In this case, the glucose level in blood collected via caudal venipuncture was measured at time points of −30, 0, 20, 40, 60, and 120 minutes after glucose administration.
In Table 3, the unit “% AUC (area under the curve)” represents a hypoglycemic level.

Where [3] appears, read: 1 h at 37° C., six concentrations, read-out: EC50.

Counter-ions that a name gives are not always drawn. Like-named read-outs stand apart in the source and are kept apart here.

As for `CN(C)C(=N)NC(=N)N` [Comparative Example 3, Metformin], the weight-loss effect result in data set [1] (oral, 300 mg/kg) is “the weight rather increased after 2 weeks of the oral administration”.
With `CC(C)CC(N(C)C)C1(c2ccc(Cl)cc2)CCC1` (stereo not drawn) [Comparative Example 4, Sibutramine], in data set [1] (oral, 5 mg/kg), the weight-loss effect result is recorded as “the weight rather increased after 2 weeks of the oral administration”.
As for `CC(C)c1noc(N2CCC(COc3ccc(C4=CCC(C(=O)N5CC[C@@H](O)C5)CC4)cc3)CC2)n1` (stereo partly drawn) [Example 48, ((R)-3-hydroxypyrrolidin-1-yl)(4-(4-((1-(3-isopropyl-1,2,4-oxadiazol-5-yl)piperidin-4-yl)methoxy)phenyl)cyclohex-3-enyl)methanone], the LD50 in “in vivo” was no less than 2000 mg/kg. Also, the values for the EC50 in data set [2] (setting [3]) and in data set [2] (read-out: EC50 value) were 35 nM and no more than 50 nM, respectively. Also, the “GLP-1 secretion compared with Comparative Example 1” value with NCI-H716 cells is reported as “induced GLP-1 secretion to a higher level than that of Comparative Example 1”. The inhibition in vivo at 20 mg/kg with blood glucose level turned out to be 21.2%. Also, the weight-loss effect result in data set [1] (oral, 10, 20, and 50 mg/kg) is given as “persistent weight loss was observed for 4 weeks”.
In “in vivo”, `CCc1cnc(N2CCC(COc3ccc(C4=CCC(C(=O)N5CCC[C@H]5CO)CC4)cc3)CC2)nc1` (stereo partly drawn) [Example 119, (4-(4-((1-(5-ethylpyrimidin-2-yl)piperidin-4-yl)methoxy)phenyl)cyclohex-3-enyl)((S)-2-(hydroxymethyl)pyrrolidin-1-yl)methanone] showed an LD50 of no less than 2000 mg/kg. Besides, the EC50 was 6.8 nM in data set [2] (setting [3]) and no more than 50 nM in data set [2] (read-out: EC50 value).
With `CC(C)c1noc(N2CCC(COc3ccc(C4=CCC(C(=O)N5CCC[C@H]5CO)CC4)cc3)CC2)n1` (stereo partly drawn) [Example 148, ((S)-2-(hydroxymethyl)pyrrolidin-1-yl)(4-(4-((1-(3-isopropyl-1,2,4-oxadiazol-5-yl)piperidin-4-yl)methoxy)phenyl)cyclohex-3-enyl)methanone], the EC50 was 13 nM in data set [2] (setting [3]) and no more than 50 nM in data set [2] (read-out: EC50 value). For the same molecule, in the data set on blood glucose level, the inhibition in vivo at 20 mg/kg worked out at 22.6%.
Consider `CCc1cnc(N2CCC(COc3ccc(C4=CCC(C(=O)N5CCC(CO)CC5)CC4)cc3)CC2)nc1` (stereo not drawn) [Example 169, (4-(4-((1-(5-ethylpyrimidin-2-yl)piperidin-4-yl)methoxy)phenyl)cyclohex-3-enyl)(4-(hydroxymethyl)piperidin-1-yl)methanone hydrochloride], for which the EC50 in data set [2] (setting [3]) came out at 9 nM. Further, in the data set on blood glucose level, the inhibition in vivo at 20 mg/kg is 21.7%.
`CCN(CCO)C(=O)C1CC=C(c2ccc(OCC3CCN(C(=O)OC(C)(C)C)CC3)cc2)CC1` (stereo not drawn) [Example 199, tert-butyl 4-((4-(4-(ethyl(2-hydroxyethyl)carbamoyl)cyclohex-1-enyl)phenoxy)methyl)piperidine-1-carboxylate]: the EC50 is 8 nM in data set [2] (setting [3]) and no more than 50 nM in data set [2] (read-out: EC50 value). In the data set with blood glucose level, the inhibition in vivo at 20 mg/kg was found to be 20.9%.
For `CC(C)(C)OC(=O)N1CCC(COc2ccc(C3=CCC(C(=O)N4CCC(CCO)CC4)CC3)cc2)CC1` (stereo not drawn) [Example 200, tert-butyl 4-((4-(4-(4-(2-hydroxyethyl)piperidine-1-carbonyl)cyclohex-1-enyl)phenoxy)methyl)piperidine-1-carboxylate], in that order: 23 nM, no more than 50 nM and 24%.
For `CC(C)(C)OC(=O)N1CCC(COc2ccc(C3=CCC(C(=O)N4CCCCC4)CC3)cc2)CC1` (stereo not drawn) [Example 204, tert-butyl 4-((4-(4-(piperidine-1-carbonyl)cyclohex-1-enyl)phenoxy)methyl)piperidine-1-carboxylate], in that order: 9 nM, no more than 50 nM and 24%.
Taken in the same sequence, the figures for `CCc1cnc(N2CCC(COc3ccc(C4=CCC(C(=O)N5CCC(C#N)CC5)CC4)cc3)CC2)nc1` (stereo not drawn) [Example 227, 1-(4-(4-((1-(5-ethylpyrimidin-2-yl)piperidin-4-yl)methoxy)phenyl)cyclohex-3-enecarbonyl)piperidine-4-carbonitrile] were 6 nM, no more than 50 nM and 26.8%.
As for `CCc1cnc(N2CCC(COc3ccc(C4=CCC(C(=O)N5CCC(=NO)CC5)CC4)cc3)CC2)nc1` (stereo not drawn) [Example 277, (4-(4-((1-(5-ethylpyrimidin-2-yl)piperidin-4-yl)methoxy)phenyl)cyclohex-3-enyl)(4-(hydroxyimino)piperidin-1-yl)methanone], the EC50 in data set [2] (setting [3]) was 20 nM. In addition, the “% AUC” value in the data set with blood glucose level was 19.8 % AUC.

The term LD50 denotes the dose at which mortality reaches 50%. High values mean lower toxicity, low ones greater toxicity. In general, EC50 refers to the concentration that produces a half-maximal response.
